Measured values taken from patent publication US10695283B2, “Extract of Greyia radlkoferi and use thereof” (UNIVERSITY OF PRETORIA, priority 2012, dated 2020).

Key:
tyrosinase = tyrosinase inhibition; assay type: biochemical; conditions: for tyrosinase 50% inhibitory concentration (IC50) of the individual phenolic compound: compound used in isolation; for individual tyrosinase inhibitory capability: isolated compounds
melanocyte cells = experiment: inhibition of melanin release by melanocyte cells in vitro; assay type: cell-based
Excerpt: The inhibition of hyper-pigmentation is not restricted to inhibition at the enzyme level but melanin inhibition can also be achieved in vitro by the inhibition of melanin release by melanocyte cells.

tyrosinase 50% inhibitory concentration (IC50) of the individual phenolic compound (tyrosinase) [µg/mL]	tyrosinase 50% inhibitory concentration (IC50) (tyrosinase; L-tyrosine and DOPA used as substrates) [µg/mL]	Compound	individual tyrosinase inhibitory capability (tyrosinase)	melanin reduction (melanocyte cells; at 3.125 μg/ml) [%]	melanin inhibited (melanocyte cells; at concentrations as low as 3.1 μg/ml)
21.42		COc1cc(O)c(C(=O)CCc2ccccc2)c(O)c1 [Compound C2, 2′,6′-dihydroxy-4′-methoxydihydrochalcone]	exhibit individual tyrosinase inhibitory capabilities	20	
		O=c1c(-c2ccc(O)cc2)coc2cc(O)cc(O)c12 [Compound C5, 4′,5′7-trihydroxyisoflavone]	exhibit individual tyrosinase inhibitory capabilities		
2.23		O=c1c(O)c(-c2ccccc2)oc2cc(O)cc(O)c12 [Compound C4, 3,5,7-trihydroxyflavone]	exhibit individual tyrosinase inhibitory capabilities		more than 50%
17.86		O=C(CCc1ccccc1)c1c(O)cc(O)cc1O [Compound C3, 2′,4′,6′-trihydroxyhydrochalcone]	exhibit individual tyrosinase inhibitory capabilities		
		O=C1C[C@@H](c2ccccc2)Oc2cc(O)cc(O)c21 [Compound C1, 5,7-dihidroxyflavone[(2S)-pinocembrin]]	exhibit individual tyrosinase inhibitory capabilities		
	896.88	O=C(/C=C/c1ccc(O)cc1)c1ccc(O)cc1O [isoliquirtigenin, reference compound]			
